# Experimental data taken from patent US5922891A, “2-substituted 1,8-dihydroxy-9(10H)-anthracenone pharmaceuticals” (priority 1997, dated 1999).
# What was measured:
# [1] = Deoxyribose degradation as a measure of hydroxyl radical formation; format: biochemical; conditions: 75 μM test compound; controls < 0.1
# [2] = Inhibition of AAPH-induced lipid peroxidation in bovine brain phospholipid liposomes; format: biochemical; conditions: AAPH-induced; bovine brain phospholipid liposomes; N = 3 or more; read-out: LPO IC50 (inhibition of lipid peroxidation)
# Procedure: Phospholipids were prepared essentially as described by Gutteridge, J. M. C., (Anal. Biochem., 82: 76-82 (1977)). Bovine brain tissue was cooled on ice, freed from blood vessels and washed repeatedly with 0.15 M NaCl, pH 7.4. The tissue was cut into pieces and then macerated with an ultra-turrax, passed through a fine-meshed sieve, and extracted four times with four times the volume of acetone. The extraction mixture was filtered by suction to remove the acetone, the residue dried under vacuum, and then repeatedly extracted with petroleum ether (40-60) using twice the volume of the original brain homogenate. The combined extracts were filtered, dried at 45° C., and dissolved in ether (one fifth the original brain volume). The mixture was treated with five times the volume of acetone, and the resulting precipitate was collected by suction-filtration, dried and stored under N2 at -20° C. in the dark. Bovine brain phospholipids were weighed into glass tubes and shaken in a vortex mixer (Heidolph) in the presence of five small glass beads (.phi. 4 mm) for 1 minute. The phospholipids were suspended in 0.15 M NaCl, pH 7.4, to a final concentration of 5 mg/ml. The mixture was purged with N2 for 1 minute and vigorously dispersed in a vortex mixer for 5 minutes. The liposomes were allowed to swell for 1 hour at 4° C., and vesicles with a mean size of 1-10 μm were obtained according to the method of Bangham, et al., (J. Mol. Biol., 13:238-252 (1965). The liposomes were stimulated with the azo initiator 2 2'-azobis (2-amidinopropane) hydrochloride according to the method of Gutteridge, J. M. C., (Anal. Biochem. 82:76-82 (1977)).
# The following reagents were added to the glass tubes containing stimulating bovine brain phospholipid piposomes in the order and at the final concentrations listed: 0.3 ml HK2 PO4 --KOH buffer, pH 7.4 (30 mM), 0.29 ml double distilled H2 O, 0.2 ml liposomes (1 mg/ml), 0.2 ml FeCl3.H2 O (0.1 mM), 0.01 ml 2-substituted anthracenone compound of the invention (variable concentrations).
# Appropriate blanks and controls using the vehicle (acetone) were conducted. The final reaction volumes were standardized to 1.0 ml. The reaction mixtures were incubated for 1 hour at 37° C. in a shaking water bath. […] of 20% (w/v) BHT, 0.5 ml 25% (w/v) HCl and 0.5 ml of 1% 2-thiobarbituric acid were added and the samples were heated at 100° C. for 15 minutes and then cooled in an ice bath (5 minutes). 2 ml of 1-butanol were added and the mixtures were vigorously shaken in a vortex mixer (Heidolph) for 15 seconds. The organic layer was separated by centrifugation at 3000 rpm (15 minutes) and absorbance at 532 nm was measured against butanol.
SMILES,"DD (deoxyribose degradation, malondialdehyde released) [1]",IC50 [2]
"COC(=O)CCCCc1ccc2c(c1O)C(=O)c1c(O)cccc1C2 [IVB, Methyl 5-(9,10-Dihydro-1,8-dihydroxy-9-oxo-2-anthracene)pentanoate]",0.62 ± 0.03 μmol of MDA/mmol,62 µM
"COC(=O)CCCCCc1ccc2c(c1O)C(=O)c1c(O)cccc1C2 [VB, Methyl 6-(9,10-Dihydro-1,8-dihydroxy-9-oxo-2-anthracene) hexaonate]",0.13 ± 0.02 μmol of MDA/mmol,120 µM
"CC(C(=O)N(C)O)c1ccc2c(c1O)C(=O)c1c(O)cccc1C2 (centres unmarked) [VIID, N-Hydroxy-N-methyl-2-(9,10-dihydro-1,8-dihydroxy-9-oxo-2-anthracene)propionamide]",1.57 ± 0.16 μmol of MDA/mmol,8 µM
"COC(=O)C(c1ccc2c(c1O)C(=O)c1c(O)cccc1C2)C(C)C (centres unmarked) [VIIIB, Methyl 2-(9,10-Dihydro-1,8-dihydroxy-9-oxo-2-anthracene)-3-methylbutanoate]",0.54 ± 0.01 μmol of MDA/mmol,165 µM
